The OPERA property sets (Mansouri et al. 2018)

details: not given

SMILES | boiling point [°C] | ready biodegradability | melting point [°C] | log10 Koc (L/kg) | log10 Henry constant (atm·m³/mol) | log10 vapour pressure (mmHg) | log10 biodegradation half-life (days)
CCCCC(CC)COC(=O)c1ccc(C(=O)OCC(CC)CCCC)c(C(=O)OCC(CC)CCCC)c1 (stereo not given) | 414 | not readily biodegradable | – | – | – | – | –
c1ccc(Cc2ccc3ccccc3c2)cc1 | 350 | – | 58 | – | – | – | –
O=C(O)c1ccncc1C(=O)O | – | – | 256 | – | – | – | –
c1ccc2c(c1)ccc1c3ccc4ccccc4c3[nH]c21 | – | – | – | 6.02 | – | – | –
COc1cc(Cl)cc(Cl)c1 | – | – | 41 | – | – | – | –
S=C1SCCS1 | 307 | – | 35 | – | – | – | –
CN=C(O)Sc1ccc(OS(C)(=O)=O)cc1 | – | – | 137 | – | – | – | –
Cc1ccc(N)cc1C | 228 | readily biodegradable | 51 | – | -5.73 | -1.55 | –
Cc1ccc(O)c(N)c1 | – | – | 136 | – | – | – | –
N#CCCC(Br)(C#N)CBr (stereo not given) | – | – | 52 | – | – | – | –
COc1cc([N+](=O)[O-])c2ncccc2c1 | – | – | 159 | – | – | – | –
FC(F)(F)C(F)(F)C(F)(F)C(F)(F)C(F)(F)C(F)(F)C(F)(F)C(F)(F)Br | 141 | – | – | – | – | – | –
CC(=O)Nc1ccc(Cl)cc1 | 333 | – | 179 | – | – | – | –
CC(C)(C)c1ccc(O)c(N)c1 | – | – | 161 | – | – | – | –
c1ccc2nsnc2c1 | 203 | – | 43 | – | – | – | –
CCCCCCCCCCCCCCCCCCCCCCCCCCCCCCCC | 467 | readily biodegradable | 69.7 | – | – | – | 2.45
Fc1ccc(F)c(F)c1 | 90 | – | – | – | – | – | –
O[C@H]1CC[C@H](O)CC1 | – | – | 143 | – | – | – | –
Clc1c2ccccc2nc2ccccc12 | – | – | 121 | – | – | – | –
CC(C)CSCC(C)C | 171 | – | -106 | – | – | – | –
N#CCCCOc1ccccc1 | 288 | – | 45.5 | – | – | – | –
O=C(O)CCCCCl | 230 | – | 18 | – | – | – | –
Nc1nc(=O)cc(Cl)[nH]1 | – | – | 262 | – | – | – | –
CS(=O)(=O)c1ccc(-c2cn3ccccc3n2)cc1 | – | – | 243 | – | – | – | –
Oc1cccc(S)c1 | – | – | 16.5 | – | – | – | –
C=CCOC=O | 83.6 | – | – | – | – | – | –
CCCCCCCCCC(C)C=O (stereo not given) | 171 | – | – | – | – | – | –

SMILES | boiling point [°C] | ready biodegradability | melting point [°C] | log10 Koc (L/kg) | log10 Henry constant (atm·m³/mol) | log10 vapour pressure (mmHg) | log10 biodegradation half-life (days)
N#Cc1ccc2ccccc2n1 | – | – | 95 | – | – | – | –
CC(=O)Nc1cccc(Cl)c1 | – | – | 80 | 1.86 | – | – | –
Nc1ccc(C(=O)c2ccccc2)cc1 | – | – | 122 | – | – | – | –
Cc1cc(C)[nH]n1 | 218 | – | 108 | – | – | – | –
Cc1ccccc1C(=O)O | 259 | readily biodegradable | 104 | – | – | -3.18 | –
CC[N+](CC)(CC)CCC(O)(c1ccccc1)C1CCCCC1.[I-] (stereo not given) | – | – | 182 | – | – | – | –
CC1CCC1 | 36.3 | – | -162 | – | – | 3.17 | –
C=COC=C | 28.3 | – | -101 | – | – | 2.83 | –
CC(=O)c1ccc(O)cc1 | – | readily biodegradable | 110 | – | – | – | –
CC(C)C(=O)c1ccccc1 | 220 | – | -1.3 | – | – | – | –
c1ccc2cc3c(ccc4ccccc43)cc2c1 | 438 | not readily biodegradable | – | 5.3 | -4.92 | -6.68 | 2.46
CCF | -37.6 | – | -143 | – | – | 3.84 | –
CC1=Nc2ccc(Cl)cc2S(=O)(=O)N1 | – | – | 330 | – | – | – | –
CC[C@H]1C[N@@]2CC[C@H]1C[C@H]2[C@H](O)c1ccnc2ccc(OC)cc12 | – | – | 170 | – | – | – | –
C=CCc1cc(OC)c(OC)c(OC)c1OC | – | – | 25 | – | – | – | –
CCCCCCCCCCOC(C)=O | 244 | – | -15 | – | – | – | –
C=C(C)C(=O)OCC(C)O (stereo not given) | – | readily biodegradable | – | – | – | – | –
Cc1cccc2c1CCC2 | 205 | – | – | – | – | – | 0.301
CC(C)OC(=O)[C@H](C)N(C(=O)c1ccccc1)c1ccc(F)c(Cl)c1 | – | – | 78.5 | – | – | – | –
O=C1C=C(Cl)C(=O)C(Cl)=C1 | – | – | 123 | – | – | – | –
OCCNC(=S)C(=S)NCCO | – | – | 93.3 | – | – | – | –
CC(C)c1cccc(O)c1O | – | – | 47 | – | – | – | –
Cc1cc(NS(=O)(=O)c2ccc(N)cc2)n(-c2ccccc2)n1 | – | – | 195 | – | – | – | –
O=C1c2c(Br)c(Br)c(Br)c(Br)c2C(=O)N1CCN1C(=O)c2c(Br)c(Br)c(Br)c(Br)c2C1=O | – | – | 445 | – | – | – | –
COC(=O)c1ccccc1C(=O)OC | 284 | readily biodegradable | 5.5 | 1.6 | – | -2.51 | –
O=C1CSC(=S)N1 | – | – | 170 | – | – | – | –
CC(C)[C@@H](Br)C(=O)O | 230 | – | 44 | – | – | – | –

SMILES | boiling point [°C] | ready biodegradability | melting point [°C] | log10 Koc (L/kg) | log10 Henry constant (atm·m³/mol) | log10 vapour pressure (mmHg) | log10 biodegradation half-life (days)
BrCCCCCCCBr | 263 | – | 41.7 | – | – | – | –
O=S1CCCC1 | 236 | – | – | – | – | – | –
CC(C)NC(C)C | 83.9 | – | -61 | – | – | 1.9 | –
Oc1ccc2cccnc2c1 | – | – | 239 | – | – | – | –
CCOC(=O)CC(C)C(=O)OCC (stereo not given) | 218 | – | – | – | – | – | –
CC(C)CS(=O)(=O)CC(C)C | 265 | – | 17 | – | – | – | –
CC(=O)C1CCOC1=O (stereo not given) | – | readily biodegradable | – | – | – | – | –
COCCOCCOC | 162 | not readily biodegradable | -68 | – | – | 0.471 | –
CC1(C)[C@@H](O)CC[C@]2(C)[C@H]3C(=O)C=C4[C@@H]5C[C@@](C)(C(=O)O)CC[C@]5(C)CC[C@@]4(C)[C@]3(C)CC[C@@H]12 | – | – | 296 | – | – | – | –
CCC(C)ON=O (stereo not given) | 68.5 | – | – | – | – | – | –
CCCCCCCCCCCC(C)O (stereo not given) | – | – | 23 | – | – | – | –
CCOC(=O)CCC(=O)O | – | – | 8 | – | – | – | –
CCCOc1ccc2[nH]c(NC(=O)OC)nc2c1 | – | – | 230 | – | – | – | –
CCCCCOC(=O)COc1cc(N2C(=O)C3=C(CCCC3)C2=O)c(F)cc1Cl | – | – | 89 | – | – | – | –
C=CCNC | 65 | – | – | – | – | – | –
Clc1ccc(-c2c(Cl)c(Cl)c(Cl)c(Cl)c2Cl)c(Cl)c1Cl | – | – | – | – | -4.96 | – | –
CSC(=O)c1c(C(F)F)nc(C(F)(F)F)c(C(=O)SC)c1CC(C)C | – | – | 65 | – | – | – | –
NS(=O)(=O)c1cc2c(cc1Cl)N=C(CSCc1ccccc1)NS2(=O)=O | – | – | 232 | – | – | – | –
CC(C)COS(=O)OCC(C)C | 210 | – | – | – | – | – | –
CCCCCCOCCOCCO | 260 | – | -40 | – | – | -2.93 | –
CC(C)CCCBr | 145 | – | – | – | – | – | –
CC(C)COCCOCCO | 217 | – | – | – | – | – | –
O=[N+]([O-])c1cc(Cl)c(Cl)c(Cl)c1 | – | – | 72.5 | – | – | – | –
CC1(C)C(O)=CC(=O)C=C1O | – | – | 214 | – | – | – | –
Cc1cc(C(C)(C)C)cc(C)c1O | 248 | – | 82.4 | – | – | – | –
O=C(O)Cc1cccnc1 | – | – | 144 | – | – | – | –
Cc1ccc2nc(C)[nH]c2c1 | 350 | – | 203 | – | – | – | –

SMILES | boiling point [°C] | ready biodegradability | melting point [°C] | log10 Koc (L/kg) | log10 Henry constant (atm·m³/mol) | log10 vapour pressure (mmHg) | log10 biodegradation half-life (days)
FCBr | 19 | – | – | – | – | – | –
CC(C)=CCCC(C)CCO (stereo not given) | – | – | – | – | – | -1.36 | –
C=C1CC=C(C(C)C)CC1 | 174 | – | – | – | – | – | –
CCC(C)(C)C(=O)O | 186 | – | -14 | – | – | -0.83 | –
C[Si](C)(C)N[Si](C)(C)C | 125 | – | – | – | – | 1.14 | –
FC(F)(F)c1ccc(Cl)cc1 | 138 | – | -33 | – | – | 0.882 | –
C[C@]12CCC(=O)C[C@@H]1CC[C@@H]1[C@@H]2CC[C@@]2(C)[C@H]1CC[C@]2(C)O | – | – | 192 | – | – | – | –
CCCCCCCCCCCCCCCCCC(=O)OC(=O)CCCCCCCCCCCCCCCCC | – | – | 72 | – | – | – | –
C#C[C@]1(O)CC[C@H]2[C@@H]3CCC4=Cc5oncc5C[C@]4(C)[C@H]3CC[C@@]21C | – | – | 226 | – | – | – | –
O=C(c1ccc(Cl)cc1)c1ccccc1Cl | – | – | 67 | – | – | – | –
CCC(=O)C=Cc1ccccc1 | – | – | 38.5 | – | – | – | –
O=C1CCCCCCCN1 | – | – | 78 | – | – | – | –
CCC(CO)CC(C)C (stereo not given) | – | – | – | – | – | -0.625 | –
C[C@]12C=C(C=O)C(=O)C=C1CC[C@@H]1[C@@H]2[C@H](O)C[C@@]2(C)[C@H]1CC[C@]2(C)O | – | – | 210 | – | – | – | –
CCCCC1CCC(OC(=O)C2CCC(CCCC)CC2)CC1 (stereo not given) | – | readily biodegradable | – | – | – | – | –
NCCc1cnc[nH]1 | – | – | 86 | – | – | – | –
C=C(CCC)CCC | 118 | – | – | – | – | – | –
Cc1cc(C)cc(NC(=O)N(C)C)c1 | – | – | – | 1.73 | – | – | –
Cc1cc(S(=O)(=O)c2ccccc2)ccc1NS(=O)(=O)C(F)(F)F | – | – | 143 | 3.08 | – | – | –
CCCOCCN(C(=O)CCl)c1c(CC)cccc1CC | – | – | – | – | -8.1 | -6 | –
Cc1ccccc1C(=O)Cl | 214 | – | – | – | – | – | –
CC(O)C(C)CO (stereo not given) | 200 | – | – | – | – | – | –
O=C(OC(=O)C(F)(F)C(F)(F)C(F)(F)F)C(F)(F)C(F)(F)C(F)(F)F | 106 | – | -43 | – | – | – | –
Clc1cc(Cl)c(C(Cl)Cl)cc1Cl | 280 | – | – | – | – | – | –

same assay, conditions: fish

SMILES | log10 BCF | log10 biotransformation half-life (days)
CCCCC(CC)COC(=O)c1ccc(C(=O)OCC(CC)CCCC)c(C(=O)OCC(CC)CCCC)c1 (stereo not given) | 1.17 | –
Cc1ccc(N)cc1C | 0.95 | -0.99
c1ccc2cc3c(ccc4ccccc43)cc2c1 | 2.41 | 0.02
Clc1ccc(-c2c(Cl)c(Cl)c(Cl)c(Cl)c2Cl)c(Cl)c1Cl | – | 2.54
